By Kd is commonly meant the constant that tells how readily two partners part at equilibrium. A high value points to weaker binding.

This is an account of results in article PMC6355809, “Proteinaceous Nano container Encapsulate Polycyclic Aromatic Hydrocarbons” (Scientific Reports, 2019).

The target of data set [1] is T1, RHCC-NT (Staphylothermus marinus, UniProt Q54436). The experiment in a line: Fluorescence binding assay (steady-state titration of PAH with RHCC-NT). Conditions: for ∆G, molar Gibbs free energy for the ligand binding: ∆G = RT ln (Kd); for Fluorescence intensity at 350 nm (λexc = 275 nm): 4 µM naphthalene; for binding to RHCC-NT / concentration dependent fluorescence changes: result in words. As to the method:
Fluorescence assays were used to examine the binding of RHCC-NT to PAHs as they allow discrimination between PAHs in solution and those bound to the RHCC-NT, as well as the ability to monitor PAH uptake as a function of time (Fig. 2). […] In order to minimize contributions from tyrosine fluorescence, the fluorescence emission at 350 nm was used to determine the binding affinity of naphthalene to RHCC-NT (Table 1).
Initial binding screens were performed by titrating known amounts of a single PAH with varying amounts of RHCC-NT. All assays were performed in 20 mM sodium phosphate solution containing 1% ethanol buffered at pH 7 and adjusted to 150 mM ionic strength. All samples were prepared in triplicate to a final volume of 1 mL and were left to incubate overnight at 25 °C to ensure complete equilibration. PAH fluorescence was then measured as a function of RHCC-NT concentration. Steady-state fluorescence spectra were collected using Fluorolog-3 Horiba Jobin Yvon spectrofluorometer (Edison, NJ). Excitation wavelength was set to 275 nm for naphthalene, 300 nm for acenaphthene, 350 nm for anthracene, 334 nm for chrysene and pyrene, 290 nm for acenaphthylene and fluorene. Excitation and emission slits were set to 1 nm band pass resolution. All samples were measured at 20 °C in a 10 × 3 mm^2 quartz cuvette. The obtained fluorescence data was used to calculate the binding constant Kd assuming that each PAH binds to one of two equal bindings sites in the RHCC-NT, cavity 2 or 3. The fraction of PAH bound and the concentration of unbound RHCC-NT was determined based on the following equation:1 Fractionbound=y=F−F0/F∞−F0=Bmax[RHCCfree]/Kd+[RHCCfree] where F is the experimental fluorescence signal of each sample, F∞ is the fluorescence of the PAH at infinite protein concentration, F0 is the fluorescence of the free PAH in solution, Bmax is a constant and equal to 1. The y values thus obtained were plotted as a function of free RHCC concentrations. The plotted data were then fit to Equation (1) using Sigma Plot 13 (Point Richmond, CA), yielding the binding constant Kd for each PAH bound to RHCC-NT[27].

The target in data set [2] is T1, RHCC-NT. The experiment in a line: Time-scale binding assay (uptake of PAH by RHCC-NT, fluorescence). The settings on record: for time to reach equilibrium: under the conditions of the pyrene time-scale study (10 °C), data not shown; for Py-value (ratio of fluorescence emission intensities of Band I/III): 2 µM pyrene, 70 µM RHCC. An excerpt: To probe the uptake kinetics of low MW PAHs, we examined the fluorescence characteristics of pyrene in solvent in comparison to RHCC-NT bound pyrene (Fig. 4). As the bulkiest of the PAHs tested, it is expected that pyrene provides an upper bound on the equilibration time of these low MW PAHs. We took advantage of the major vibronic bands (I and III) of pyrene with defined peaks at ~373 and 384 nm[11],[12]. […] The ratio of the fluorescence emission intensities of Band I/III is defined as Py-value[13],[14] and can be employed to detect polarity in the vicinity of the probed microenvironment.
The time-scale assay was set-up by addition of pyrene to a 35-fold molar excess of RHCC in 20 mM sodium phosphate solution buffered at pH 7 and adjusted to 150 mM ionic strength. Both solutions were equilibrated to 10 °C prior to the assay. Data was collected on a Fluorolog-3 Horiba Jobin Yvon Spectrofluorometer (Edison, NJ). Excitation wavelength was set to 334 nm; emission was monitored at 384 nm; excitation and emission slits were set to 1 nm band pass resolution. Temperature was kept at 10 °C and controlled with a water bath throughout the experiment. Data was acquired every 1 minute for the first 25 minutes, following by 30 minute intervals until fluorescence signal plateaued and equilibrium achieved.

On the set-up of data set [3]: method as in PMID 26626387. The settings on record: in kJ/mol; cited from earlier work.
A further data set deals with RHCC-tetrabrachion. In words: GC-MS/MS uptake of PAHs. In kind it is binding, Staphylothermus marinus. The settings on record: result in words.

With `c1cc2c3c(cccc3c1)CC2` [Acenaphthene, acenaphthene], on RHCC-NT [1], the Kd came out at 8.9 ± 1.8 µM and the “∆G, molar Gibbs free energy for the ligand binding” value (“∆G, molar Gibbs free energy” for short) was -6.84 kcal/mol. Besides, the “time to reach equilibrium” value on RHCC-NT [2] is given as “ca. 1 min”.
In the case of `C1=Cc2cccc3cccc1c23` [Acenaphthylene, acenaphthylene], at RHCC-NT [1], the affinity, expressed as Kd, was 32 ± 7 µM and the “∆G, molar Gibbs free energy” value was -6.09 kcal/mol. Moreover, the “time to reach equilibrium” value on RHCC-NT [2] was “ca. 1 min”.
Consider `c1ccc2cc3ccccc3cc2c1` [Anthracene, anthracene], for which, at RHCC-NT [1], the Kd was found to be 8.7 ± 1.5 µM and the “∆G, molar Gibbs free energy” value is -6.86 kcal/mol.
Taken in the same sequence, the figures for `c1ccc2c(c1)ccc1c3ccccc3ccc21` [Chrysene, chrysene] were 27 ± 5.6 µM and -6.19 kcal/mol.
`c1ccc2c(c1)Cc1ccccc1-2` [Fluorene, fluorene]: at RHCC-NT [1], the Kd came to 5.4 ± 1.6 µM and the “∆G, molar Gibbs free energy” value is -7.15 kcal/mol.
With `c1ccc2ccccc2c1` [Naphthalene, naphthalene], at RHCC-NT [1], the Kd was 17 ± 1.4 µM. Further, the “Fluorescence intensity at 350 nm (λexc = 275 nm)” value at RHCC-NT [1] ([RHCC] 0 µM) amounted to 708292; on RHCC-NT [1] ([RHCC] 0.12 µM) it was 709824; on RHCC-NT [1] ([RHCC] 0.24 µM) it was 730572; on RHCC-NT [1] ([RHCC] 0.48 µM), 733694; at RHCC-NT [1] ([RHCC] 0.96 µM) it was 780644; on RHCC-NT [1] ([RHCC] 1.9 µM), 906120. The “Fluorescence intensity at 350 nm (λexc = 275 nm)” value at RHCC-NT [1] ([RHCC] 3.8 µM) stood at 1003650; on RHCC-NT [1] ([RHCC] 7.7 µM) it was 1177910; at RHCC-NT [1] ([RHCC] 15.4 µM), 1420260; at RHCC-NT [1] ([RHCC] 30.75 µM), 1845910; at RHCC-NT [1] ([RHCC] 61.5 µM), 1873130. The “∆G, molar Gibbs free energy” value at RHCC-NT [1] was -6.48 kcal/mol. Moreover, on RHCC-NT [2], the “time to reach equilibrium” value is “ca. 1 min”. For the same molecule, the “ΔGsolv, measured solvation free energy” value in data set [3] is −10.0 ± 2.5.
With `c1cc2ccc3cccc4ccc(c1)c2c34` [Pyrene, pyrene], on RHCC-NT [1], the Kd is 30 ± 2 µM and the “∆G, molar Gibbs free energy” value was -6.12 kcal/mol. The average uptake rate on RHCC-NT [2] (10 °C) stood at 1.59 nmol/hr∙mol RHCC-NT. Also, on RHCC-NT [2] (10 °C, emission at 384 nm), the “time for complete uptake by RHCC-NT” value is “around 80 hrs”. Besides, the “Py-value (ratio of fluorescence emission intensities of Band I/III)” value on RHCC-NT [2] (RHCC-NT:Pyrene time = 0, 10 °C) came to 1.7288. Moreover, the “Py-value (ratio of fluorescence emission intensities of Band I/III)” value at RHCC-NT [2] (RHCC-NT:Pyrene time = 75 hrs, 10 °C) is recorded as 0.6395. For the same molecule, the “ΔGsolv, measured solvation free energy” value in data set [3] is reported as −18.91 ± 2.5.
As to `c1ccc2cc3c(ccc4ccccc43)cc2c1` [benz(a)anthracene], on RHCC-NT [1], the “binding to RHCC-NT / concentration dependent fluorescence changes” value is “did not exhibit any concentration dependent fluorescence changes”. The “uptake by RHCC-tetrabrachion” value in the data set with RHCC-tetrabrachion is reported as “uptake”.
As to `c1ccc2c(c1)-c1cccc3cccc-2c13` [fluoranthene], the “binding to RHCC-NT / concentration dependent fluorescence changes” value on RHCC-NT [1] is “did not exhibit any concentration dependent fluorescence changes”. Also, in the data set on RHCC-tetrabrachion, the “uptake by RHCC-tetrabrachion” value is recorded as “uptake”.
`c1ccc2c(c1)ccc1ccccc12` [phenanthrene]: the “binding to RHCC-NT / concentration dependent fluorescence changes” value on RHCC-NT [1] is “did not exhibit any concentration dependent fluorescence changes”. The “uptake by RHCC-tetrabrachion” value with RHCC-tetrabrachion is listed as “uptake”. In addition, in data set [3], the “ΔGsolv, measured solvation free energy” value is reported as −16.2 ± 2.5.
